These results are taken from patent US9856240B2, “Compounds that modulate intracellular calcium” (CalciMedica, Inc., priority 2011, dated 2018).

Structures are written as SMILES. Some results are limits rather than exact numbers.

The test system of assay [1] is store-operated calcium entry in RBL-2H3 cells. The assay is described as follows: Fluorescence-based assay of store-operated calcium entry in RBL-2H3 cells. The settings on record: Rattus norvegicus, thapsigargin, FLIPR Fluo-4, read-out: RBL-2H3 (IC50, μmol). The class given is cell-based. Here is the method:
B. Fluorescence-Based Assay of Store-Operated Calcium Entry in RBL-2H3 Cells.
RBL-2H3 cells are obtained from ATCC and maintained in complete medium with 10% FBS at 37° C./6% CO2.
The day prior to performing the assay, RBL-2H3 cells are plated in 50 μL of complete medium in a 384 well plate. Cells are grown at 37° C./6% CO2 overnight and grow to 50-60% confluence by the next day. On the assay day, 1.5 μM Fluo-4-AM dye (Invitrogen) in complete medium is added and incubated for 1 hour at RT. Cells are washed twice in Ca^2+-free HBSS buffer and 35 μL Ca^2+-free HBSS buffer is added to each well. 10 μL of a test compound prepared in a Ca^2+-free HBSS solution at 4.5× of the desired concentration is added to a well and incubated for 5 minutes at RT. 10 μL of thapsigargin prepared in a Ca^2+-free HBSS solution at 5.5× of the desired concentration (5.5 uM) is added to each well and incubated for an additional 25 minutes. The initial baseline fluorescence signal is measured with a FLIPR^384 (Molecular Devices) plate reader. 5 μL of 12× calcium in HBSS (12 mM) is added and changes in cellular fluorescence are measured with the FLIPR^384 plate reader. In each well, the change in the fluorescent signal as a function of time due to calcium entry into the cell is determined by calculating the difference between the fluorescent signal measured 7 seconds after calcium addition and the initial baseline fluorescence signal at time zero (t=0). This parameter is designated Upslope. The IC50 value is calculated as the concentration at which 50% of the Upslope is inhibited.

The target in assay [2] is T1, recombinant human STIM1 and Orai1 (HEK-293 cells) (Homo sapiens, UniProt Q96D31).
T1 construct: expressed in transfected cells; host or cells: HEK-293 cells stably expressing both proteins
T1 sequence (Q96D31 whole entry): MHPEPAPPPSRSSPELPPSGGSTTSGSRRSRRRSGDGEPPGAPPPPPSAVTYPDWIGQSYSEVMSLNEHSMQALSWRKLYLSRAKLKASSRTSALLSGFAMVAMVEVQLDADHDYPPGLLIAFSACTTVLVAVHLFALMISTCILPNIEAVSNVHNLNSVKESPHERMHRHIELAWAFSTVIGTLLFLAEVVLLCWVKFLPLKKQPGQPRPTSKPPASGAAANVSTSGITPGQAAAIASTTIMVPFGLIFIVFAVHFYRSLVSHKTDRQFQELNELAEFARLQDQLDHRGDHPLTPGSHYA
The assay is described as follows: Fluorescence-based assay of store-operated calcium entry in Orai1/STIM1 stable cells. Type of assay: cell-based. The arrangement: key to Orai1/STIM1 (IC50, μmol): A < 0.6 μmol; 0.6 μmol ≦ B ≦ 1.2 μmol; C > 1.2 μmol; — = no fit. The settings on record: for Orai1/STIM1 (IC50, μmol): FLIPR fluo-4; for IC50: FLIPR fluo-4, read-out: Orai1/STIM1 (IC50, μmol). On the procedure:
A. Fluorescence-Based Assay of Store-Operated Calcium Entry in Orai1/STIM1 Stable Cells.
Cells stably expressing recombinant human STIM1 and Orai1 are generated by transfecting a human Orai1 expression plasmid (pcDNA3.1-Orai1-cmyc) into HEK-293 cells stably overexpressing human STIM1 (Roos et al. 2005 JCB 169(3): 435-445). Colonies of cells stably expressing both STIM1 and Orai1 proteins are selected and then subcloned by limiting dilution. Cells were cultured at 37° C./6% CO2 in complete medium with 10% FBS and appropriate selection markers.
The day prior to performing the assay Orai1/STIM1 stable cells are plated in 50 μL of complete medium at 90-95% confluence in a 384 well plate. Cells are grown at 37° C./6% CO2 overnight. On the day of the assay, 1.5 μM fluo-4-AM (Invitrogen) in complete medium is added to the cells, which are then incubated for 1 hour at RT. Cells are washed once in Ca^2+-free HBSS (Hank's buffered saline solution) and 35 μl of Ca^2+-free HBSS is added to each well. Test compounds are added to wells in a 10 μL Ca^2+-free HBSS solution, prepared at 4.5× the desired final concentration, and incubated for 30 minutes at RT. The initial baseline fluorescence signal is then measured with a FLIPR^384 (Molecular Devices) plate reader. Calcium entry is initiated by adding 5 μl of 10× CaCl2 (10 mM) in HBSS, and changes in cellular fluorescence are measured with the FLIPR^384 plate reader. In each well, the magnitude of the fluorescence signal as a result of calcium entry into the cell is determined by calculating the difference between the peak fluorescence signal measured after calcium addition and the initial baseline fluorescence signal (designated Peak-Basal). IC50 values are typically calculated as the concentration that inhibited 50% of the Peak-Basal signal (Table A).

As to `CCn1nc(C)cc1C(=O)Nc1cnc(-c2cc3c(cc2Cl)OC(F)(F)O3)cn1` [Example 26], the IC50 in assay [1] is more than 1.2 µM.

In the case of `Cc1oncc1C(=O)Nc1cnc(-c2cc3c(cc2Cl)OC(F)(F)O3)cn1` [Example 30, N-(5-(6-chloro-2,2-difluorobenzo[d][1,3]dioxol-5-yl)pyrazin-2-yl)-5-methylisoxazole-4-carboxamide], in assay [2], the “Orai1/STIM1 (IC50, μmol)” value is reported as “—”.

Take `O=C(Nc1ncc(Oc2ccccc2C(F)(F)F)s1)c1c(F)cccc1F` [Example 43, (2,6-difluorophenyl)-N-{5-[2-(trifluoromethyl)phenoxy](1,3-thiazol-2-yl)}carboxamide]: the results for the IC50 in assay [1] and in assay [2] were 0.6 to 1.2 µM and more than 1.2 µM, respectively.

With `Cc1noc(C)c1C(=O)Nc1ccc(-c2cc3c(cc2Cl)OC(F)(F)O3)cn1` [Example 11, N-(5-(6-chloro-2,2-difluorobenzo[d][1,3]dioxol-5-yl)pyridin-2-yl)-3,5-dimethylisoxazole-4-carboxamide], the IC50 in assay [1] and in assay [2] was less than 0.6 µM each time.

With `Cc1nc(C)c(C(=O)Nc2ccc(-c3cc4c(cc3Cl)OC(F)(F)O4)cn2)o1` [Example 21, N-(5-(6-chloro-2,2-difluorobenzo[d][1,3]dioxol-5-yl)pyridin-2-yl)-2,4-dimethyloxazole-5-carboxamide], the IC50 in assay [2] is more than 1.2 µM.

For the molecule `Cc1cc(C(=O)Nc2cnc(-c3cc4c(cc3Cl)OC(F)(F)O4)cn2)n(C)n1` [Example 27, N-(5-(6-chloro-2,2-difluorobenzo[d][1,3]dioxol-5-yl)pyrazin-2-yl)-1,3-dimethyl-1H-pyrazole-5-carboxamide], the values for the IC50 in assay [1] and in assay [2] were more than 1.2 µM and 0.6 to 1.2 µM, respectively.

As to `Cc1cc2c(cc1-c1cnc(NC(=O)c3c(Cl)c(C(F)(F)F)nn3C)cn1)OC(F)(F)O2` [Example 37, 4-chloro-N-(5-(2,2-difluoro-6-methylbenzo[d][1,3]dioxol-5-yl)pyrazin-2-yl)-1-methyl-3-(trifluoromethyl)-1H-pyrazole-5-carboxamide], the IC50 in assay [1] was less than 0.6 µM; in assay [2], 0.6 to 1.2 µM.

As for `CCc1nnsc1C(=O)Nc1ccc(-c2cc3c(cc2Cl)OC(F)(F)O3)cn1` [Example 14, N-(5-(6-chloro-2,2-difluorobenzo[d][1,3]dioxol-5-yl)pyridin-2-yl)-4-ethyl-1,2,3-thiadiazole-5-carboxamide], the IC50 in assay [1] and in assay [2] was less than 0.6 µM each time.

Consider `Cc1onc(C(=O)Nc2ccc(-c3cc4c(cc3Cl)OC(F)(F)O4)cn2)c1C` [Example 5, N-(5-(6-chloro-2,2-difluorobenzo[d][1,3]dioxol-5-yl)pyridin-2-yl)-4,5-dimethylisoxazole-3-carboxamide], for which the IC50 in assay [1] is 0.6 to 1.2 µM. In assay [2], the “Orai1/STIM1 (IC50, μmol)” value was “—”.

Take `Cc1onc(C(=O)Nc2cnc(-c3cc4c(cc3Cl)OC(F)(F)O4)cn2)c1C` [Example 25, N-(5-(6-chloro-2,2-difluorobenzo[d][1,3]dioxol-5-yl)pyrazin-2-yl)-4,5-dimethylisoxazole-3-carboxamide]: the results for the IC50 in assay [1] and in assay [2] were less than 0.6 µM and 0.6 to 1.2 µM, respectively.

Turning to `Cc1noc(C)c1C(=O)Nc1cnc(-c2cc(C(F)(F)F)nn2C)cn1` [Example 42, 3,5-dimethyl-N-(5-(1-methyl-3-(trifluoromethyl)-1H-pyrazol-5-yl)pyrazin-2-yl)isoxazole-4-carboxamide], the IC50 in assay [1] and in assay [2] was more than 1.2 µM in each case.

As to `Cc1cnoc1C(=O)Nc1ccc(-c2cc3c(cc2Cl)OC(F)(F)O3)cn1` [Example 20, N-(5-(6-chloro-2,2-difluorobenzo[d][1,3]dioxol-5-yl)pyridin-2-yl)-4-methylisoxazole-5-carboxamide], the IC50 in assay [1] and in assay [2] was less than 0.6 µM throughout.

Consider `Cn1ncc(C(=O)Nc2cnc(-c3cc4c(cc3Cl)OC(F)(F)O4)cn2)c1C(F)(F)F` [Example 22, N-(5-(6-chloro-2,2-difluorobenzo[d][1,3]dioxol-5-yl)pyrazin-2-yl)-1-methyl-5-(trifluoromethyl)-1H-pyrazole-4-carboxamide], for which the “Orai1/STIM1 (IC50, μmol)” value in assay [2] was “—”.

In the case of `Cn1ncc(C(=O)Nc2ccc(-c3cc4c(cc3Cl)OC(F)(F)O4)cn2)c1C(F)(F)F` [Example 4, N-(5-(6-chloro-2,2-difluorobenzo[d][1,3]dioxol-5-yl)pyridin-2-yl)-1-methyl-5-(trifluoromethyl)-1H-pyrazole-4-carboxamide], the IC50 in assay [1] is more than 1.2 µM. For the same molecule, the “Orai1/STIM1 (IC50, μmol)” value in assay [2] was “—”.

`Cc1cc2c(cc1-c1cnc(NC(=O)c3c(Cl)cnn3C)cn1)OC(F)(F)O2` [Example 35, 4-chloro-N-(5-(2,2-difluoro-6-methylbenzo[d][1,3]dioxol-5-yl)pyrazin-2-yl)-1-methyl-1H-pyrazole-5-carboxamide]: the IC50 in assay [1] and in assay [2] was less than 0.6 µM each time.

Turning to `O=C(Nc1cnc(-c2cc3c(cc2Cl)OC(F)(F)O3)cn1)c1ccnn1C(F)F` [Example 33, N-(5-(6-chloro-2,2-difluorobenzo[d][1,3]dioxol-5-yl)pyrazin-2-yl)-1-(difluoromethyl)-1H-pyrazole-5-carboxamide], the IC50 in assay [1] was less than 0.6 µM. Further, the “Orai1/STIM1 (IC50, μmol)” value in assay [2] is recorded as “—”.

As to `Cn1cc(Cl)c(C(=O)Nc2ccc(-c3cc4c(cc3Cl)OC(F)(F)O4)cn2)n1` [Example 8, 4-chloro-N-(5-(6-chloro-2,2-difluorobenzo[d][1,3]dioxol-5-yl)pyridin-2-yl)-1-methyl-1H-pyrazole-3-carboxamide], the IC50 in assay [1] and in assay [2] was more than 1.2 µM each time.

For `Cc1nocc1C(=O)Nc1ccc(-c2cc3c(cc2Cl)OC(F)(F)O3)cn1` [Example 18, N-(5-(6-chloro-2,2-difluorobenzo[d][1,3]dioxol-5-yl)pyridin-2-yl)-3-methylisoxazole-4-carboxamide], the IC50 in assay [1] and in assay [2] was less than 0.6 µM throughout.

Turning to `Cc1oncc1C(=O)Nc1ccc(-c2cc3c(cc2Cl)OC(F)(F)O3)cn1` [Example 10, N-(5-(6-chloro-2,2-difluorobenzo[d][1,3]dioxol-5-yl)pyridin-2-yl)-5-methylisoxazole-4-carboxamide], the “Orai1/STIM1 (IC50, μmol)” value in assay [2] was “—”.

Consider `Cc1cc2c(cc1-c1cnc(NC(=O)c3c(Cl)c(C)nn3C)cn1)OC(F)(F)O2` [Example 36, 4-chloro-N-(5-(2,2-difluoro-6-methylbenzo[d][1,3]dioxol-5-yl)pyrazin-2-yl)-1,3-dimethyl-1H-pyrazole-5-carboxamide], for which the “Orai1/STIM1 (IC50, μmol)” value in assay [2] is recorded as “—”.

Turning to `Cc1nc(C(=O)Nc2ccc(-c3cc4c(cc3Cl)OC(F)(F)O4)cn2)c(C(F)(F)F)o1` [Example 19, N-(5-(6-chloro-2,2-difluorobenzo[d][1,3]dioxol-5-yl)pyridin-2-yl)-2-methyl-5-(trifluoromethyl)oxazole-4-carboxamide], the “Orai1/STIM1 (IC50, μmol)” value in assay [2] is “—”.

With `Cn1cc(Cl)c(C(=O)Nc2cnc(-c3cc4c(cc3Cl)OC(F)(F)O4)cn2)n1` [Example 28, 4-chloro-N-(5-(6-chloro-2,2-difluorobenzo[d][1,3]dioxol-5-yl)pyrazin-2-yl)-1-methyl-1H-pyrazole-3-carboxamide], the “Orai1/STIM1 (IC50, μmol)” value in assay [2] is “—”.

In the case of `Cc1nn(C)c(C(=O)Nc2cnc(-c3cc4c(cc3Cl)OC(F)(F)O4)cn2)c1Cl` [Example 23, 4-chloro-N-(5-(6-chloro-2,2-difluorobenzo[d][1,3]dioxol-5-yl)pyrazin-2-yl)-1,3-dimethyl-1H-pyrazole-5-carboxamide], in assay [2], the “Orai1/STIM1 (IC50, μmol)” value is “—”.
